What all share (experiment): NCI anticancer screen, dose series, 48 h
In assay [1] the test system is IGROV1 ovarian.
Assay [2] relates to SW-620 colon.
Assay [3] has as its system UACC-257 melanoma.
In assay [4] the test system is CAKI-1 renal.
For assay [5], the system named is NCI-H522 lung.
Assay [6] has as its system 786-0 renal.
Assay [7] relates to EKVX NSCLC.
The test system of assay [8] is A498 renal.
The test system of assay [9] is NCI/ADR-RES ovarian.
For assay [10], the system named is MDA-MB-231 breast.

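Results reflect a 48-hour exposure of cells in 96-well plates to compound at five concentrations. Here, GI50 denotes the concentration required for 50% inhibition of growth. TGI: total growth inhibition.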 *1 amine or outer side, *2 acyl side, *3 side chain or, on linkers, in order; H or OH if unused. Where a SMILES comes first, the peptide text is derived from it. CO = O=C([*:1])[*:2]

For the compound `OCC1OC(O)C(N=Cc2ccc3c(c2)OCO3)C(O)C1O` (stereo not drawn), the TGI in [1], in [2], in assay [3], in [4], in [5] and in assay [6] was over 100 µM each time. Further, the TGI in assay [7], in [8], in assay [9] and in assay [10] was over 100 µM each time.
Turning to `Cc1ccc(-c2nc3nc(-c4ccc(Cl)cc4)nc(N4CCCNCC4)c3o2)cc1`, the GI50 in [1] was 1.65 µM; in assay [2] it was 1.7 µM; in assay [3], 1.91 µM; in [4], 1.45 µM; in assay [5], 1.75 µM; in assay [6] it was 1.86 µM. The GI50 in assay [7] was 1.75 µM; in assay [8], 1.88 µM; in assay [9], 2.02 µM; in assay [10], 1.83 µM. The TGI was 3.15 µM in assay [1]; 3.32 µM in assay [2]; 3.65 µM in assay [3]; 2.88 µM in assay [4]; 3.85 µM in assay [5]; 3.54 µM in assay [6]. Besides, the TGI is 3.27 µM in assay [7], 3.56 µM in [8], 3.95 µM in [9] and 3.37 µM in [10].
`CC(C)C(NC(=O)C(CCCN=C(N)N)NC(=O)NC(Cc1ccccc1)C(=O)O)C(=O)NC(C=O)CCCN=C(N)N` (stereo not drawn) ({Phe-CO}-Arg-Val-Arg-aldehyde; configuration not given here): the GI50 in [1], in assay [2], in [3], in assay [4], in assay [5] and in [6] was over 5 µM in each case. In addition, the GI50 in [7], in [8], in assay [9] and in assay [10] was over 5 µM throughout. Also, the TGI in assay [1], in assay [2], in assay [3], in [4], in [5] and in assay [6] was over 5 µM each time. In addition, the TGI in [7], in [8], in [9] and in assay [10] was over 5 µM each time.
In the case of `C[C@]12CC[C@H]3[C@@H](CC=C4C[C@@H](O)CC[C@@]43C)[C@@H]1C/C(=C\c1cccc(OCCCn3ccnc3)c1)[C@@H]2O`, the GI50 in assay [1] was 16.8 µM; in assay [2], 10.6 µM; in [3], 13.1 µM; in assay [4], 13.8 µM; in [5] it was 14.6 µM; in [6], 10.5 µM. Moreover, the GI50 was 13.5 µM in [7], 13.4 µM in [8], 20.4 µM in [9] and 13.2 µM in [10]. Also, the TGI came out at 33.6 µM in assay [1]; 26.8 µM in assay [2]; 29.2 µM in assay [3]; 34.5 µM in [4]; 27.7 µM in assay [5]; 35 µM in assay [6]. In addition, the TGI in [7] stood at 33.9 µM; in assay [8] it was 26.8 µM; in [9] it was 99.7 µM; in assay [10] it was 32 µM.
In the case of `COc1cc(/C=C2\C[C@H]3[C@@H]4CC=C5C[C@@H](OC(C)=O)CC[C@]5(C)[C@H]4CC[C@]3(C)[C@H]2OC(C)=O)ccc1OCCCn1ccnc1`, the GI50 in assay [1] is 16.8 µM; in [2] it was 10.3 µM; in assay [3], 8.43 µM; in assay [4], 7.05 µM; in [5] it was 12.8 µM; in [6] it was 6.06 µM. Besides, the GI50 in assay [7] is 9.49 µM; in assay [8] it was 7.19 µM; in assay [9] it was 11.3 µM; in assay [10], 8.2 µM. Besides, the TGI in assay [1] is over 50 µM; in assay [2], over 30.1 µM; in [3] it was 17.3 µM; in assay [4], 15.8 µM; in [5], over 36.3 µM; in assay [6], 13.4 µM. For the same compound, the TGI in [7] came to 20 µM; in assay [8] it was 15 µM; in assay [9], 28.8 µM; in [10] it was 16.6 µM.
With `CCC[C@H](Nc1nc(-c2ccc(NC(=O)NCC)c(OC)c2)ncc1C)c1cccnc1`, the GI50 in assay [1] was 0.0566 µM; in [2], 0.0425 µM; in assay [3] it was 0.82 µM; in assay [4], 0.222 µM; in assay [5], 0.0345 µM; in assay [6], 0.0453 µM. The GI50 in assay [7] was 0.0621 µM; in [8], 0.0322 µM; in [9] it was 0.214 µM; in [10], 0.0372 µM. In addition, the TGI in assay [1] is 24.6 µM; in [2] it was over 88.4 µM; in [3], 28.8 µM; in assay [4], 24 µM; in [5], 0.868 µM; in assay [6] it was 12.6 µM. Further, the TGI in [7] is over 100 µM; in assay [8], 0.864 µM; in [9], 9.97 µM; in assay [10], 1.72 µM.
With `CC(=O)NC(Cc1c[nH]c2ccccc12)C(=O)O` (stereo not drawn), the TGI in assay [1], in assay [2], in [3], in assay [4], in assay [5] and in assay [6] was over 100 µM throughout. Besides, the TGI in assay [7], in assay [8], in assay [9] and in [10] was over 100 µM in each case.
As for `Fc1ccc(Nc2ccc3cc(OCCCN4CCOCC4)ccc3n2)cc1F`, the GI50 in assay [1] is 10.9 µM; in [2] it was 2.12 µM; in [3], 2.77 µM; in assay [4], 3.71 µM; in assay [5], 2.15 µM; in [6], 2.15 µM. For the same compound, the GI50 in assay [7] is 5.86 µM; in assay [8] it was 2.21 µM; in assay [9] it was 4.45 µM; in [10] it was 1.96 µM. Further, the TGI in [1] is over 100 µM; in assay [2], 4.4 µM; in [3] it was 6.88 µM; in [4], 25.6 µM; in assay [5], 5.37 µM; in assay [6], 4.68 µM. The TGI in [7] was over 100 µM; in [8] it was 7.64 µM; in assay [9] it was over 100 µM; in [10], 4.68 µM.
With `CNC(=O)c1ccc(Nc2nc(OC3CCCC3)c3c(-c4ccc5nc(C)oc5c4)c[nH]c3n2)c(OC)c1`, the GI50 in [1] is 0.448 µM; in assay [2] it was 0.121 µM; in [3], over 100 µM; in assay [4], 0.448 µM; in assay [5], 1.67 µM; in [6], over 43.4 µM. The GI50 in assay [7] is over 100 µM; in assay [8], 0.547 µM; in assay [9], 1.71 µM; in assay [10] it was 14 µM. For the same compound, the TGI in assay [1], in [2], in assay [3], in [4], in assay [5] and in [6] was over 100 µM throughout. For the same compound, the TGI in [7], in assay [8], in assay [9] and in assay [10] was over 100 µM in each case.
As for `O=C1CN2CCC1C/C2=C\c1ccnc2c(Cl)cccc12` (stereo not drawn), the GI50 was 34 µM in [1]; over 100 µM in assay [2]; 59.7 µM in assay [3]; 21 µM in [4]; 53.5 µM in assay [5]; over 100 µM in [6]. In addition, the GI50 in assay [7] is 33 µM; in [8], 69.8 µM; in assay [9], 39.2 µM; in assay [10], 88.8 µM. The TGI in assay [1], in [2], in assay [3], in assay [4], in assay [5] and in [6] was over 100 µM throughout. Moreover, the TGI in assay [7], in assay [8], in assay [9] and in [10] was over 100 µM throughout.
With `C[C@]12CC[C@@H]3c4ccc(OCC(=O)O)cc4CC[C@H]3[C@@H]1CCC2=O`, the TGI in assay [1], in assay [2], in assay [3], in [4], in assay [5] and in assay [6] was over 100 µM throughout. Moreover, the TGI in [7], in assay [8], in assay [9] and in assay [10] was over 100 µM throughout.
On to `COc1cc2c3c(n(CCCn4ccnc4)c(=O)c2cc1OC)-c1ccccc1C3=O`, for which the GI50 in assay [1] is under 0.01 µM; in assay [2], under 0.0206 µM; in assay [4], under 0.01 µM; in assay [5], under 0.01 µM; in [6] it was under 0.01 µM; in assay [7] it was 0.833 µM. For the same compound, the figures for the GI50 in assay [8], in [9] and in assay [10] were 0.0449 µM, 0.223 µM and 0.254 µM, respectively. For the same compound, the TGI was 0.35 µM in assay [1]; 0.199 µM in assay [3]; 0.105 µM in [4]; 0.0612 µM in assay [5]; 0.194 µM in assay [6]; over 100 µM in assay [7]. Further, the TGI in assay [8] worked out at 0.292 µM; in assay [9], 1.86 µM; in [10], 5.19 µM.
On to `CCC[CH2][Sn]([CH2]CCC)([O]C(=O)c1cccc(F)c1F)[O][Sn]([CH2]CCC)([CH2]CCC)[O]C(=O)c1cccc(F)c1F`, for which the GI50 in assay [1] was 0.781 µM; in assay [2] it was 0.103 µM; in assay [3], 0.222 µM; in assay [4] it was 0.116 µM; in [5], 0.01 µM; in assay [6], 0.154 µM. The GI50 in assay [7] was 0.675 µM; in [8], 0.202 µM; in assay [9], 0.3 µM; in assay [10], 0.218 µM. Moreover, the TGI stood at 2.15 µM in [1]; 0.239 µM in assay [2]; 0.728 µM in [3]; 0.363 µM in [4]; 0.0697 µM in assay [5]; 0.344 µM in [6]. The TGI in assay [7] amounted to 2.04 µM; in assay [8] it was 0.526 µM; in assay [9], 1.32 µM; in assay [10], 1.19 µM.
As for `CCOC(=O)c1ccc(C(O)CC(=O)OC(C)(C)C)[nH]1` (stereo not drawn), the GI50 in [1] was 12.4 µM; in [2], 50.1 µM; in assay [3] it was 40.8 µM; in assay [4], 21.6 µM; in assay [5], 9.5 µM; in [6] it was 23.9 µM. Moreover, the GI50 in assay [7] was 22.7 µM; in assay [8], 23.7 µM; in assay [9], 41 µM; in assay [10], 13 µM. Further, the TGI in assay [1] is 30.4 µM; in assay [2] it was over 100 µM; in assay [3], over 100 µM; in assay [4] it was 87.2 µM; in [5], 25.9 µM; in [6], 83.3 µM. The TGI was 49.6 µM in [7], over 100 µM in assay [8], over 100 µM in assay [9] and over 100 µM in assay [10].
On to `O=C(CCc1ccc(O)c(O)c1)c1ccc(O)c(O)c1O`, for which the TGI is over 100 µM in assay [1]; over 100 µM in [2]; over 100 µM in assay [3]; 37.9 µM in [4]; 41.1 µM in [5]; over 100 µM in [6]. In addition, the TGI is 48.4 µM in assay [7], over 100 µM in assay [8], over 100 µM in assay [9] and 55.5 µM in assay [10].
On to `CN1CCN(Cc2ccc(NC(=O)c3[nH]ncc3Nc3ccnc4ccsc34)cc2)CC1`, for which the GI50 in assay [1] is 2.82 µM; in assay [2], 2.6 µM; in assay [3], 11.6 µM; in assay [4] it was 6.04 µM; in assay [5], 1.98 µM; in assay [6], 3.84 µM. Also, the GI50 in [7] was 2.74 µM; in assay [8] it was 1.64 µM; in [9], 15.7 µM; in assay [10], 3.56 µM. Also, the TGI came out at 16.7 µM in [1]; 12 µM in assay [2]; 30 µM in assay [3]; 27.6 µM in [4]; 13.5 µM in assay [5]; 13.6 µM in assay [6]. Moreover, the TGI in assay [7] is 9.81 µM; in assay [8], 4.87 µM; in [9], over 100 µM; in [10], 9.71 µM.

Source of the values: PubChem BioAssay (NCI).
